Data reported in patent US20230158025A1 (UNIVERSITY OF UTAH RESEARCH FOUNDATION, priority 2020, published 2023).
Read-outs that look alike come from different tables or passages of the source.

Tests used:
[1] = molecular target: recombinant human GALK1 (Homo sapiens, UniProt P51570); test: hGALK1 biochemical activity assay (Kinase-Glo Plus, ATP depletion)
In short: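 Recombinant human or mouse GALK1 (5 nM, with 100 μM galactose, in the added enzyme solution) was run with ATP (35 μM in the substrate solution) in HEPES pH 8.0 buffer. Compounds were tested at 11 1/3-step concentrations from 57.4 μM to 0.97 nM. After 1 h at room temperature, remaining ATP was read by Kinase-Glo Plus luminescence.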

[2] = molecular target: recombinant mouse GALK1 (Mus musculus, UniProt Q9R0N0); test: mGALK1 biochemical activity assay (Kinase-Glo Plus, ATP depletion)
In short: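 Recombinant GALK1 (5 nM) with 100 μM galactose; GALK1 turnover read as ATP depletion by Kinase-Glo Plus luminescence. Reaction ran 1 h at room temperature before detection reagent was added.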

[3] = molecular target: T1, hGALK1m (Homo sapiens, UniProt P51570, E253A/K252A); test: in vitro hGALK1 activity assay of the structure-based optimisation (Example 12, Tables 17-20); assay type: biochemical
T1 construct: made in house; host or cells: E. coli HMS174

[4] = PAMPA permeability; conditions: for Papp: PAMPA, ADME P: PAMPA permeability (class), Tables 17-19, class probably colour-coded, colour lost
[5] = aqueous kinetic solubility
[6] = rat microsomal stability (RLM); conditions: for half-life: rat, rat liver microsomes
[7] = Tables 2-15, 35 μM ATP, 100 μM galactose, 1 h, bracketed figure after some values (e.g. −1.2) is undefined and not reported, read-out: hGALK IC50
[8] = recombinant human GALK1, Kinase-Glo Plus ATP depletion, read-out: hGALK
[9] = Tables 2-15, 35 μM ATP, 100 μM galactose, 1 h, bracketed figure after some values is undefined and not reported, read-out: mGALK IC50
[10] = recombinant mouse GALK1, Kinase-Glo Plus ATP depletion, read-out: mGALK
[11] = Tables 18-19, read-out: Max Response (%)
[12] = Tables 18-19 and text of Example 12

Chain of recombinant human GALK1 (P51570 whole entry): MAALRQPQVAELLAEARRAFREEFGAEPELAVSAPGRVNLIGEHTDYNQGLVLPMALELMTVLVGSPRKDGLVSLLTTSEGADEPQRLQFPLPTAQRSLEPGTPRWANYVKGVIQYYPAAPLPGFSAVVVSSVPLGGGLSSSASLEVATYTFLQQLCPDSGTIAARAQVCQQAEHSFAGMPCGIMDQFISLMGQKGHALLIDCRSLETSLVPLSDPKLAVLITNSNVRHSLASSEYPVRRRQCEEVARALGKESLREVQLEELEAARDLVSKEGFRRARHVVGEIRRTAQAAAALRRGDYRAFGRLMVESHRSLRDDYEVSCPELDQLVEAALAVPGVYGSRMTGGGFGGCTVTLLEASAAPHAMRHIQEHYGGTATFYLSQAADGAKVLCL
Chain of recombinant mouse GALK1 (Q9R0N0 whole entry): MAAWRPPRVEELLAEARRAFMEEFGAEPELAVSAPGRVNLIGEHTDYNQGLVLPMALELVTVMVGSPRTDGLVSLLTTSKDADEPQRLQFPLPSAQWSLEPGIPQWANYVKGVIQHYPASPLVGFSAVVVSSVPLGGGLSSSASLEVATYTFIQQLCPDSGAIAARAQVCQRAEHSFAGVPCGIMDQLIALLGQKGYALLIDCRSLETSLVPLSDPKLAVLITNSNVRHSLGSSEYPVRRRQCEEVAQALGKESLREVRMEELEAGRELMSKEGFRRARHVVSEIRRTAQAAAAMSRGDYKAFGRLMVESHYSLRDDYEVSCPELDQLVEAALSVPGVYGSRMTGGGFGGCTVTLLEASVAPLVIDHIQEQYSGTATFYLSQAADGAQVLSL
T1 sequence (P51570 whole entry K252A/E253A): as the sequence (P51570 whole entry) above, with K252A, E253A counted along it

Structure (SMILES)	IC50 [1, 7] [µM]	IC50 [1, 8] [µM]	IC50 [2, 9] [µM]	IC50 [2, 10] [µM]	Emax [3, 11] [%]	IC50 [3, 12] [µM]	Perm. (1 × 10^−6 cm/sec) [4]	Papp [4] [×10⁻⁶ cm/s]	Sol. [5] [µg/mL]	Metab. Stabil. (m) ([6]; microsomal half-life)	half-life [6] [min]	change of potency versus parent compound (in words) [3]	IC50 ([3]; Tables 18-20 and text of Example 12) [µM]	mGALK IC50 ([2]; Tables 2-15, 35 μM ATP, 100 μM galactose, 1 h, bracketed figure after some values is undefined and not reported)	mGALK (μM) ([2]; recombinant mouse GALK1, Kinase-Glo Plus ATP depletion)	Emax ([3]; 1 h, Table 17, read-out: Efficacy) [%]	IC50 ([3]; Table 17, amide group optimization, no unit in table) [µM]	Sol. ([5]; aqueous kinetic solubility) [µg/mL]	Metab. Stabil. (m) ([6]; microsomal stability half-life)
COc1cccc(C2N=C(Nc3nc4ccc(F)cc4o3)NC(C)=C2C(=O)Nc2cc(C(=O)O)ccn2)c1Cl (stereo not shown) [Compound 52, 2-(4-(2-chloro-3-methoxyphenyl)-2-((6-fluorobenzo[d]oxazol-2-yl)amino)-6-methyl-1,4-dihydropyrimidine-5-carboxamido)isonicotinic acid]	6.85	6.85	19.3	19.3	100	5.4	<1 1 × 10^−6 cm/sec	< 10	>81	>30	< 10								
CC1=C(C(=O)Nc2cc(C(=O)O)ccn2)C(c2ccccc2Br)N=C(Nc2nc3ccc(F)cc3o2)N1 (stereo not shown) [Compound 75, 2-(4-(2-bromophenyl)-2-((6-fluorobenzo[d]oxazol-2-yl)amino)-6-methyl-1,4-dihydropyrimidine-5-carboxamido)isonicotinic acid]	0.54		3.85	3.85	100			< 10	36.0	>30	< 10	little impact on the potency	0.235						
CC1=C(C(=O)Nc2cc(C(=O)O)ccn2)C(c2cccc(C(N)=O)c2)N=C(Nc2nc3ccc(F)cc3o2)N1 (stereo not shown) [Compound 76, 2-(4-(3-carbamoylphenyl)-2-((6-fluorobenzo[d]oxazol-2-yl)amino)-6-methyl-1,4-dihydropyrimidine-5-carboxamido)isonicotinic acid]	7.69	7.69	21.7	21.7	90	3.8	<1 1 × 10^−6 cm/sec	< 10	>78	>30	< 10	significantly impaired the potency							

Next, values leading:

IC50 [1, 7] [µM]	IC50 [1, 8] [µM]	IC50 [2, 9] [µM]	IC50 [2, 10] [µM]	Emax [3, 11] [%]	IC50 [3, 12] [µM]	Perm. (1 × 10^−6 cm/sec) [4]	Papp [4] [×10⁻⁶ cm/s]	Sol. [5] [µg/mL]	Metab. Stabil. (m) ([6]; microsomal half-life)	half-life [6] [min]	change of potency versus parent compound (in words) [3]	IC50 ([3]; Tables 18-20 and text of Example 12) [µM]	mGALK IC50 ([2]; Tables 2-15, 35 μM ATP, 100 μM galactose, 1 h, bracketed figure after some values is undefined and not reported)	mGALK (μM) ([2]; recombinant mouse GALK1, Kinase-Glo Plus ATP depletion)	Emax ([3]; 1 h, Table 17, read-out: Efficacy) [%]	IC50 ([3]; Table 17, amide group optimization, no unit in table) [µM]	Sol. ([5]; aqueous kinetic solubility) [µg/mL]	Metab. Stabil. (m) ([6]; microsomal stability half-life)	Structure (SMILES)
19.3	19.3			90	> 15	<1 1 × 10^−6 cm/sec	< 10	60.1	>30	< 10	compromised the potency		inactive	in- active					CC1=C(C(=O)Nc2cc(C(=O)O)ccn2)C(c2cccc(C(F)(F)F)c2)N=C(Nc2nc3ccc(F)cc3o2)N1 (stereo not shown) [Compound 77, 2-(2-((6-fluorobenzo[d]oxazol-2-yl)amino)-6-methyl-4-(3-(trifluoromethyl)phenyl)-1,4-dihydropyrimidine-5-carboxamido)isonicotinic acid]
17.2	17.2	38.5	38.5	75	> 15		< 10	>84	>30	< 10	significantly impaired the potency								CC1=C(C(=O)Nc2cc(C(=O)O)ccn2)C(c2cccc(S(N)(=O)=O)c2)N=C(Nc2nc3ccc(F)cc3o2)N1 (stereo not shown) [Compound 78, 2-(2-((6-fluorobenzo[d]oxazol-2-yl)amino)-6-methyl-4-(3-sulfamoylphenyl)-1,4-dihydropyrimidine-5-carboxamido)isonicotinic acid]
10.9		13.7	13.7	100	0.97		< 10			< 10					57	6.9	<1	24	CC1=C(C(=O)Nc2ccccc2)C(c2ccccc2Cl)N=C(Nc2nc3ccccc3o2)N1 (stereo not shown) [Compound 137, 2-(benzo[d]oxazol-2-ylamino)-4-(2-chlorophenyl)-6-methyl-N-phenyl-1,4-dihydropyrimidine-5-carboxamide]
